Kd data for eight compounds are collected here from patent US20250296959A1, “B7-H3 TARGETING PEPTIDES AND CONSTRUCTS THEREOF” (Mariana Oncology Inc., priority 2024, published 2025).

The structures appear in SMILES notation. Starred links: 1 amine or outer side, 2 acyl side, 3 side chain; linkers in the order of their positions; H or OH if unused. Positions of bridges follow the written chain, without caps; N, C: chain ends. Non-standard residues stand in square brackets, D forms with d. Residues, ends and D or L forms follow the SMILES beside them. Groups on a side chain read outwards from the residue. *: point of attachment. X16 = O=C(O)CCOCCOCCOCCOCCOCCOCCOCCOCCOCCOCCOCCOCCOCCOCCOCCOCCOCCOCCOCCOCCOCCC(=O)*; Ala(piperidin-4-yl) = O=C([C@H](CC1CCN([*:3])CC1)N[*:1])[*:2]; DOTA = O=C(O)CN1CCN(CC(=O)O)CCN(CC(=O)*)CCN(CC(=O)O)CC1; Phe(4-NHCONH2) = NC(=O)Nc1ccc(C[C@H](N)C(=O)O)cc1; Trp(5-Cl) = N[C@@H](Cc1c[nH]c2ccc(Cl)cc12)C(=O)O; Trp(5-F) = N[C@@H](Cc1c[nH]c2ccc(F)cc12)C(=O)O; X1 = C[C@@H](c1ccccc1)[C@H](N[*:1])C(=O)[*:2]; Trp(1-Me) = Cn1cc(C[C@H](N)C(=O)O)c2ccccc21; γGlu = O=C(O)[C@H](CCC(=O)[*:2])N[*:1]; Ala(4-THP) = N[C@@H](CC1CCOCC1)C(=O)O; Val(3-OH) = CC(C)(O)[C@H](N)C(=O)O; pGlu = O=C1CC[C@@H](C(=O)O)N1; Tle = CC(C)(C)[C@H](N)C(=O)O; hLeu = CC(C)CC[C@H](N)C(=O)O; Nle = CCCC[C@H](N)C(=O)O; Orn = NCCC[C@H](N)C(=O)O; Aze = O=C(O)[C@@H]1CCN1; PEG2 = NCCOCCOCCC(=O)O; PEG1 = NCCOCCC(=O)O

This test deals with T1, human 4lg B7-H3 (Homo sapiens, UniProt Q5ZPR3).
T1 sequence (Q5ZPR3 29-534): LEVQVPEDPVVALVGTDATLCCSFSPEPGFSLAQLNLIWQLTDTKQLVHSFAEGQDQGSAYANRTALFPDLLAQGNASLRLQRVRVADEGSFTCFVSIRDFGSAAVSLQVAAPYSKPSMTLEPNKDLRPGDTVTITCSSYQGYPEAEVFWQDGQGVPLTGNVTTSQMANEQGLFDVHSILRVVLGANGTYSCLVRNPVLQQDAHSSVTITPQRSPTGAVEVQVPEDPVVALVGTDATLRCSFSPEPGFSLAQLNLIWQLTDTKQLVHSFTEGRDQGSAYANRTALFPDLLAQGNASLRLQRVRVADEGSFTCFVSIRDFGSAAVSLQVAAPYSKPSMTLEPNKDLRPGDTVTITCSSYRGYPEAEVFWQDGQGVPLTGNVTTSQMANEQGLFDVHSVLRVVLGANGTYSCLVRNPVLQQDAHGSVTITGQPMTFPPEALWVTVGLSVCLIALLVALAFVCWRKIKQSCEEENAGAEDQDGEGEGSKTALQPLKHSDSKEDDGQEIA
The experiment in a line: Affinity determination by surface plasmon resonance (SPR) to 4Ig B7-H3. The following applies: 4Ig B7-H3. On the technique in general: SPR reads the build-up and loss of mass on a sensor chip optically.

[1] abbreviates: SPR KD—37° C., 37° C. flow cell temperature.
Where [2] appears, read: SPR KD—25° C., 25° C. flow cell temperature.

As usually defined, the Kd is the free concentration of one partner at which half of the binding sites on the other are occupied at equilibrium, for simple one-to-one binding. The compound `CC(=O)N[C@@H](CCC(C)C)C(=O)N[C@@H](Cc1ccc(O)cc1)C(=O)N[C@H]1CSSC[C@@H](C(=O)N[C@@H](Cc2c[nH]c3ccc(F)cc23)C(=O)N[C@@H](Cc2ccccc2)C(=O)N[C@H](C(=O)N[C@H](CCCCNC(=O)CN2CCN(CC(=O)O)CCN(CC(=O)O)CCN(CC(=O)O)CC2)C(=O)O)[C@@H](C)O)NC(=O)[C@H](Cc2ccc(O)cc2)NC(=O)[C@H](C(C)C)NC(=O)[C@H](CC(=O)O)NC(=O)[C@H](CC2CCOCC2)NC(=O)[C@H](CCCCNC(=O)CCOCCOCCOCCOCCOCCOCCOCCOCCOCCOCCOCCOCCOCCOCCOCCOCCOCCOCCOCCOCCOCCC(=O)O)NC(=O)CNC(=O)[C@H](C(C)(C)C)NC1=O` [compound 341, Ac-hLeu-Y-C-Tbg-G-K(PEG21-COOH)-ThpA-D-V-Y-C-5FW-F-Thr-dLys(DOTA)-COOH] (Ac-[hLeu]YC[Tle]GK(X16)[Ala(4-THP)]DVYC[Trp(5-F)]FT[dK](DOTA)-OH; disulfide 3-11) came in with a Kd under setting [1] of 10 to 100 nM.
Compound `CC(=O)N[C@@H](CCC(C)C)C(=O)N[C@@H](Cc1ccc(O)cc1)C(=O)N[C@H]1CSSC[C@@H](C(=O)N[C@@H](Cc2c[nH]c3ccc(F)cc23)C(=O)N[C@@H](Cc2ccccc2)C(=O)N[C@H](C(=O)N[C@H](CCC(=O)O)C(N)=O)C(C)(C)O)NC(=O)[C@H](Cc2ccc(O)cc2)NC(=O)[C@H](C(C)C)NC(=O)[C@H](CC(=O)O)NC(=O)[C@H](CC2CCOCC2)NC(=O)[C@H](CC2CCN(C(=O)CCOCCOCCNC(=O)CN3CCN(CC(=O)O)CCN(CC(=O)O)CCN(CC(=O)O)CC3)CC2)NC(=O)CNC(=O)[C@H](C(C)(C)C)NC1=O` [compound 474, Ac-hLeu-Y-C-Tbg-G-Pip(PEG2-DOTA)Ala-ThpA-D-V-Y-C-5FW-F-hydroxyVal-dGlu-CONH2] (Ac-[hLeu]YC[Tle]G[Ala(piperidin-4-yl)]([PEG2-DOTA])[Ala(4-THP)]DVYC[Trp(5-F)]F[Val(3-OH)][dE]-NH2; disulfide 3-11) had a dissociation constant Kd under setting [1] of 1 to 10 nM.
With `CC(=O)N[C@@H](CCC(C)C)C(=O)N[C@@H](Cc1ccc(O)cc1)C(=O)N[C@H]1CSSC[C@@H](C(=O)N[C@@H](Cc2c[nH]c3ccc(Cl)cc23)C(=O)N[C@@H](Cc2ccccc2)C(=O)N[C@H](C(=O)N[C@H](CCCCNC(=O)CN2CCN(CC(=O)O)CCN(CC(=O)O)CCN(CC(=O)O)CC2)C(N)=O)[C@@H](C)O)NC(=O)[C@H](Cc2ccc(O)cc2)NC(=O)[C@H](C(C)C)NC(=O)[C@H](CC(=O)O)NC(=O)[C@H](Cc2ccc(O)cc2)NC(=O)[C@H](CCCCN)NC(=O)CNC(=O)[C@H](C(C)(C)C)NC1=O` [compound 235, Ac-hLeu-Y-C-Tbg-G-K-Y-D-V-Y-C-5ClTrp-F-Thr-dLys(DOTA)-CONH2] (Ac-[hLeu]YC[Tle]GKYDVYC[Trp(5-Cl)]FT[dK](DOTA)-NH2; disulfide 3-11), under setting [2], the Kd was 1 to 10 nM.
`CC(=O)N[C@@H](CCC(C)C)C(=O)N[C@@H](Cc1ccc(O)cc1)C(=O)N[C@H]1CSSC[C@@H](C(=O)N[C@@H](Cc2c[nH]c3ccc(F)cc23)C(=O)N[C@@H](Cc2ccccc2)C(=O)N[C@H](C(=O)N[C@H](CCCCNC(=O)CN2CCN(CC(=O)O)CCN(CC(=O)O)CCN(CC(=O)O)CC2)C(=O)O)C(C)(C)O)NC(=O)[C@H](Cc2ccc(O)cc2)NC(=O)[C@H](C(C)C)NC(=O)[C@H](CC(=O)O)NC(=O)[C@H](CC2CCOCC2)NC(=O)[C@@H]2CCN2C(=O)CNC(=O)[C@H](C(C)(C)C)NC1=O` [compound 375, Ac-hLeu-Y-C-Tbg-G-Aze-ThpA-D-V-Y-C-5FW-F-hydroxyVal-dLys(DOTA)-COOH] (Ac-[hLeu]YC[Tle]G[Aze][Ala(4-THP)]DVYC[Trp(5-F)]F[Val(3-OH)][dK](DOTA)-OH; disulfide 3-11): under setting [1], the Kd lay in the range of 1 to 10 nM.
`CC(C)CC[C@H](NC(=O)[C@@H]1CCC(=O)N1)C(=O)N[C@@H](Cc1ccc(O)cc1)C(=O)N[C@H]1CSSC[C@@H](C(=O)N[C@@H](Cc2c[nH]c3ccc(F)cc23)C(=O)N[C@H](C(=O)N[C@H](C(=O)N[C@H](CCCCNC(=O)[C@H](CCC(=O)O)NC(=O)CN2CCN(CC(=O)O)CCN(CC(=O)O)CCN(CC(=O)O)CC2)C(=O)O)C(C)(C)O)[C@@H](C)c2ccccc2)NC(=O)[C@H](Cc2ccc(NC(N)=O)cc2)NC(=O)[C@H](C(C)C)NC(=O)[C@H](CC(=O)O)NC(=O)[C@H](CC2CCOCC2)NC(=O)[C@H](CC2CCNCC2)NC(=O)CNC(=O)[C@H](C(C)(C)C)NC1=O` [compound 505, Pyroglutamate-hLeu-Y-C-Tbg-G-PipAla-ThpA-D-V-Aph(Cbm)-C-5FW-[(2S, 3S)beta-Me-Phe]-hydroxyVal-dLys(Glu-DOTA)-COOH] ([pGlu][hLeu]YC[Tle]G[Ala(piperidin-4-yl)][Ala(4-THP)]DV[Phe(4-NHCONH2)]C[Trp(5-F)][X1][Val(3-OH)][dK]([Glu-DOTA])-OH; disulfide 4-12) displayed a Kd under setting [1] below 1 nM.
The compound `CCCC[C@H](NC(C)=O)C(=O)N[C@@H](Cc1ccc(O)cc1)C(=O)N[C@H]1CSSC[C@@H](C(=O)N[C@@H](Cc2c[nH]c3ccccc23)C(=O)N[C@@H](Cc2ccccc2)C(=O)N[C@H](C(=O)N[C@H](CCCCNC(=O)CN2CCN(CC(=O)O)CCN(CC(=O)O)CCN(CC(=O)O)CC2)C(N)=O)[C@@H](C)O)NC(=O)[C@H](Cc2ccc(O)cc2)NC(=O)[C@H](C(C)C)NC(=O)[C@H](CC(=O)O)NC(=O)[C@H](Cc2ccc(O)cc2)NC(=O)[C@H](CCCN)NC(=O)CNC(=O)[C@H](C(C)C)NC1=O` [compound 63, Ac-Nle-Y-C-V-G-Orn-Y-D-V-Y-C-W-F-Thr-dLys(DOTA)-CONH2] (Ac-[Nle]YCVG[Orn]YDVYCWFT[dK](DOTA)-NH2; disulfide 3-11) displayed a Kd under setting [2] of 1 to 10 nM.
In turn, `CC(C)CC[C@H](NC(=O)CCOCCNC(=O)CC[C@H](NC(=O)CN1CCN(CC(=O)O)CCN(CC(=O)O)CCN(CC(=O)O)CC1)C(=O)O)C(=O)N[C@@H](Cc1ccc(O)cc1)C(=O)N[C@H]1CSSC[C@@H](C(=O)N[C@@H](Cc2c[nH]c3ccc(F)cc23)C(=O)N[C@@H](Cc2ccccc2)C(=O)N[C@H](C(N)=O)C(C)(C)O)NC(=O)[C@H](Cc2ccc(O)cc2)NC(=O)[C@H](C(C)C)NC(=O)[C@H](CC(=O)O)NC(=O)[C@H](CC2CCOCC2)NC(=O)[C@H](CCCCN)NC(=O)CNC(=O)[C@H](C(C)(C)C)NC1=O` [compound 395, DOTA-gE-PEG1-hLeu-Y-C-Tbg-G-K-ThpA-D-V-Y-C-5FW-F-hydroxyVal-CONH2] ({DOTA-γGlu-PEG1}-[hLeu]YC[Tle]GK[Ala(4-THP)]DVYC[Trp(5-F)]F[Val(3-OH)]-NH2; disulfide 3-11) came in with a Kd under setting [1] of 1 to 10 nM.
In turn, `CCCC[C@H](NC(C)=O)C(=O)N[C@@H](Cc1ccc(O)cc1)C(=O)N[C@H]1CSSC[C@@H](C(=O)N[C@@H](Cc2cn(C)c3ccccc23)C(=O)N[C@@H](Cc2ccccc2)C(=O)N[C@H](C(=O)N[C@H](CCCCNC(=O)CN2CCN(CC(=O)O)CCN(CC(=O)O)CCN(CC(=O)O)CC2)C(N)=O)[C@@H](C)O)NC(=O)[C@H](Cc2ccc(O)cc2)NC(=O)[C@H](C(C)C)NC(=O)[C@H](CC(=O)O)NC(=O)[C@H](Cc2ccc(O)cc2)NC(=O)[C@H](CCCCN)NC(=O)CNC(=O)[C@H](C(C)C)NC1=O` [compound 132, Ac-Nle-Y-C-V-G-K-Y-D-V-Y-C-Trp(Me)-F-Thr-dLys(DOTA)-CONH2] (Ac-[Nle]YCVGKYDVYC[Trp(1-Me)]FT[dK](DOTA)-NH2; disulfide 3-11) yielded an equilibrium dissociation constant (Kd) under setting [2] of 1 to 10 nM.
